The text below walks through data of US9580449B2, “Compositions and methods for the production of pyrimidine and pyridine compounds with BTK inhibitory activity” (Merck Patent GmbH, priority 2011, dated 2017).

In this assay the target is full-length human BTK (Homo sapiens (Human), UniProt Q06187). Put plainly: BTK IC50 enzyme assay (microfluidic off-chip mobility shift kinase assay). Format: biochemical. To be noted: incubated for 90 min. at 27 C; read-out: Time Dependent BTK Enzyme Assay IC50. An outline of the steps: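 Off-chip microfluidic mobility shift assay on full-length human BTK; substrate-to-product conversion measured by charge/mass separation of phosphorylated peptide after reaction stop.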
Chain of full-length human BTK (Q06187 whole entry): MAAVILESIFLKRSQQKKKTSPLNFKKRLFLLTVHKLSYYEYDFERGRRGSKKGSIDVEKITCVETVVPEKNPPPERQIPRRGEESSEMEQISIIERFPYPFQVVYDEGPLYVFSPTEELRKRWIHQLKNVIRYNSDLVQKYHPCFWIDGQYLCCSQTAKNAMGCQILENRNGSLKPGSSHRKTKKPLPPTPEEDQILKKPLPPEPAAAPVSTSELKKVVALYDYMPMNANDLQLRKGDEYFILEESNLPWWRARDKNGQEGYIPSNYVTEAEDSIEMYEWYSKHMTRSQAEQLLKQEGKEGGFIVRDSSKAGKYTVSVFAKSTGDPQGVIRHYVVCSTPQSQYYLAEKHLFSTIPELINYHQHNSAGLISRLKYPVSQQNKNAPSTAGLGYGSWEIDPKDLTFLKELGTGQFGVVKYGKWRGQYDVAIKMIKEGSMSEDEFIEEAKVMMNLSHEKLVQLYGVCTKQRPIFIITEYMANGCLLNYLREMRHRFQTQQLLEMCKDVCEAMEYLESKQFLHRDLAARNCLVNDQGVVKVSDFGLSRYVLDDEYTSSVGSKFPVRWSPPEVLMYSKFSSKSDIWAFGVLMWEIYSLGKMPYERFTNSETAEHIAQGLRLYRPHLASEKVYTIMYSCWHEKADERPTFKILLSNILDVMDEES
With `C=CC(=O)N1CC[C@@H](CNc2ncnc(N)c2-c2ccc(Oc3ccc(C#N)cc3)cc2)[C@H](O)C1` (racemic) [A199, 4-(4-(4-((((3S,4S)-1-acryloyl-3-hydroxypiperidin-4-yl)methyl)amino)-6-aminopyrimidin-5-yl)phenoxy)benzonitrile], the IC50 was below 1000 nM.

On to `C=CC(=O)NCCOc1ncnc(N)c1-c1ccc(Oc2ccccc2)cc1` [A27, N-(2-((6-amino-5-(4-phenoxyphenyl)pyrimidin-4-yl)oxy)ethyl)acrylamide], for which the 50% inhibitory concentration (IC50) was above 1000 nM.

On to `C=CC(=O)N1CC[C@@H](CNc2ncnc(N)c2-c2cnn(Cc3ccccc3)c2)[C@H](O)C1` [A109, 1-((3S,4S)-4-(((6-amino-5-(1-benzyl-1H-pyrazol-4-yl)pyrimidin-4-yl)amino)methyl)-3-hydroxypiperidin-1-yl)prop-2-en-1-one], for which the IC50 was below 100 nM.

For `C#CC(=O)N1CC2(CC(Oc3ncnc(N)c3-c3cnn(Cc4ccccc4)c3)C2)C1` [A112, 1-(6-((6-amino-5-(1-benzyl-1H-pyrazol-4-yl)pyrimidin-4-yl)oxy)-2-azaspiro[3.3]heptan-2-yl)prop-2-yn-1-one], the IC50 is below 100 nM.

Consider `CN(C)C/C=C/C(=O)N1CC[C@H](CNc2ncnc(N)c2-c2ccc(Oc3ccccc3)cc2)C1` [A62, (R,E)-1-(3-(((6-amino-5-(4-phenoxyphenyl)pyrimidin-4-yl)amino)methyl)pyrrolidin-1-yl)-4-(dimethylamino)but-2-en-1-one], for which the half-maximal inhibitory concentration (IC50) is below 1000 nM.

In the case of `C=CC(=O)Nc1cccc(Oc2ncnc(N)c2-c2ccc(C(=O)N3CCCC3)cc2)c1` [A285, N-(3-((6-amino-5-(4-(pyrrolidine-1-carbonyl)phenyl)pyrimidin-4-yl)oxy)phenyl)acrylamide], the IC50 was below 1000 nM.

As to `C/C=C\C(=O)N1CCC(COc2ncnc(N)c2-c2ccc(Oc3ccccc3)cc2)CC1` [A43, (Z)-1-(4-(((6-amino-5-(4-phenoxyphenyl)pyrimidin-4-yl)oxy)methyl)piperidin-1-yl)but-2-en-1-one], the half-inhibitory concentration (IC50) was below 1000 nM.

`C=CC(=O)N1CCO[C@@H](COc2ncnc(N)c2-c2ccc(Oc3ccccc3)cc2)C1` [A66, (R)-1-(2-(((6-amino-5-(4-phenoxyphenyl)pyrimidin-4-yl)oxy)methyl)morpholino)prop-2-en-1-one]: the concentration for half-maximal inhibition (IC50) is below 100 nM.

Regarding `CC#CC(=O)Nc1cccc(Oc2ccnc(N)c2-c2ccc(Oc3ccccc3)cc2)c1` [A340, N-(3-((2-amino-3-(4-phenoxyphenyl)pyridin-4-yl)oxy)phenyl)but-2-ynamide], the IC50 is below 100 nM.

For `C=CC(=O)N1CC(CCNc2ncnc(N)c2-c2ccc(Oc3ccccc3)cc2)C1` [A103, 1-(3-(2-((6-amino-5-(4-phenoxyphenyl)pyrimidin-4-yl)amino)ethyl)azetidin-1-yl)prop-2-en-1-one], the IC50 is below 1000 nM.

On to `C=CC(=O)N[C@H]1CC[C@@H](Nc2ncnc(N)c2-c2ccc(C(=O)Nc3ccccc3)cc2)CC1` [A159, 4-(4-((cis-4-acrylamidocyclohexyl)amino)-6-aminopyrimidin-5-yl)-N-phenylbenzamide], for which the concentration for half-maximal inhibition (IC50) was above 1000 nM.

Consider `C=CC(=O)N1CCC(CNc2ncnc(N)c2-c2ccc(Oc3ccncc3)cc2)CC1` [A97, 1-(4-(((6-amino-5-(4-(pyridin-4-yloxy)phenyl)pyrimidin-4-yl)amino)methyl)piperidin-1-yl)prop-2-en-1-one], for which the IC50 is below 1000 nM.

Take `Nc1ncnc(NCC2CCN(C(=O)C3=CCC3)CC2)c1-c1ccc(Oc2ccccc2)cc1` [A42, (4-(((6-amino-5-(4-phenoxyphenyl)pyrimidin-4-yl)amino)methyl)piperidin-1-yl)(cyclobut-1-en-1-yl)methanone]: the IC50 was below 1000 nM.

In the case of `Nc1ncnc(NCC2CCN(c3cccc(Cl)n3)CC2)c1-c1ccc(Oc2ccccc2)cc1` [A337, N4-((1-(6-chloropyridin-2-yl)piperidin-4-yl)methyl)-5-(4-phenoxyphenyl)pyrimidine-4,6-diamine], the IC50 was above 1000 nM.

In the case of `C=CC(=O)N1CCC[C@@H](Nc2ncnc(N)c2-c2cnn(Cc3ccccc3)c2)C1` [A180, (R)-1-(3-((6-amino-5-(1-benzyl-1H-pyrazol-4-yl)pyrimidin-4-yl)amino)piperidin-1-yl)prop-2-en-1-one], the IC50 is below 1000 nM.

For `C=CC(=O)N1CCC(CNc2ncnc(N)c2-c2ccc(OC)cc2)CC1` [A85, 1-(4-(((6-amino-5-(4-methoxyphenyl)pyrimidin-4-yl)amino)methyl)piperidin-1-yl)prop-2-en-1-one], the IC50 is above 1000 nM.

Regarding `C=CC(=O)Nc1cccc(-c2cncnc2Nc2ccc(Oc3ccccc3)cc2)c1` [A283, N-(3-(4-((4-phenoxyphenyl)amino)pyrimidin-5-yl)phenyl)acrylamide], the IC50 is below 1000 nM.

Turning to `C#CC(=O)N1CC(CCNc2ncnc(N)c2-c2ccc(Oc3ccccc3)cc2)C1` [A104, 1-(3-(2-((6-amino-5-(4-phenoxyphenyl)pyrimidin-4-yl)amino)ethyl)azetidin-1-yl)prop-2-yn-1-one], the IC50 was below 100 nM.

Turning to `Nc1cccc(-c2c(N)ncnc2Oc2ccc(Oc3ccccc3)cc2)c1` [A317, 5-(3-aminophenyl)-6-(4-phenoxyphenoxy)pyrimidin-4-amine], the IC50 is above 1000 nM.

As for `C=CC(=O)N1CCC(CNc2ncnc(N)c2-c2cnn(Cc3ccccc3)c2)CC1` [A33, 1-(4-(((6-amino-5-(1-benzyl-1H-pyrazol-4-yl)pyrimidin-4-yl)amino)methyl)piperidin-1-yl)prop-2-en-1-one], the 50% inhibitory concentration (IC50) is above 1000 nM.

Regarding `C=CC(=O)N1CCO[C@@H](COc2ncnc(N)c2-c2cnn(Cc3ccccc3)c2)C1` [A192, (R)-1-(2-(((6-amino-5-(1-benzyl-1H-pyrazol-4-yl)pyrimidin-4-yl)oxy)methyl)morpholino)prop-2-en-1-one], the half-inhibitory concentration (IC50) is below 1000 nM.

Consider `C=CC(=O)Nc1cccc(Oc2ncnc(N)c2-c2cncc(OC)c2)c1` [A291, N-(3-((6-amino-5-(5-methoxypyridin-3-yl)pyrimidin-4-yl)oxy)phenyl)acrylamide], for which the IC50 was below 1000 nM.

For `CC#CC(=O)c1cccc(CNc2ncnc(N)c2-c2ccc(Oc3ccccc3)cc2)c1` [A141, 1-(3-((6-Amino-5-(4-phenoxyphenyl)-pyrimidin-4-ylamino)-methyl)-phenyl)-but-2-yn-1-one], the concentration for half-maximal inhibition (IC50) is below 1000 nM.

Turning to `Nc1cccc(Oc2ncnc(N)c2-c2ccc(Oc3ccccc3)cc2)c1` [A305, 6-(3-aminophenoxy)-5-(4-phenoxyphenyl)pyrimidin-4-amine], the IC50 is above 1000 nM.

As for `C=CC(=O)N1CCC(CNc2ncnc(N)c2-c2ccc3c(c2)OCCO3)CC1` [A84, 1-(4-(((6-amino-5-(2,3-dihydrobenzo[b][1,4]dioxin-6-yl)pyrimidin-4-yl)amino)methyl)piperidin-1-yl)prop-2-en-1-one], the 50% inhibitory concentration (IC50) was above 1000 nM.

On to `C=CC(=O)N1CCC(COc2ncnc(N)c2-c2ccc(Oc3ccccc3)cc2)CC1` [A338, 1-(4-(((6-amino-5-(4-phenoxyphenyl)pyrimidin-4-yl)oxy)methyl)piperidin-1-yl)prop-2-en-1-one], for which the IC50 was below 1000 nM.

As for `CN(C)C/C=C/C(=O)Nc1cccc(-c2cnccc2Oc2ccc(Oc3ccccc3)cc2)c1` [A282, (E)-4-(dimethylamino)-N-(3-(4-(4-phenoxyphenoxy)pyridin-3-yl)phenyl)but-2-enamide], the IC50 was below 100 nM.
